# Measurements taken from patent US20110091570A1, “Compositions and Devices for Antisepsis and Anticoagulation” (priority 2008, published 2011).
# “And” between values parts separate entries of the source, which are not always exact repeats. Equal entries are not always repeated.
# Tests used:
# [1] = test system: Antithrombin III; assay: Antithrombin III in citrate blood; type: biochemical, human; conditions: Example 7; for Antithrombin III: individual subjects 1-11; for Antithrombin III, mean value: mean of 11 subjects
# Protocol: (§1) Whole blood was taken from 11 volunteers and enriched with trisodium citrate (0.3 mL of a 0.106 molar solution per 3 mL whole blood) (S-Monovette®, Sarstedt, Nümbrecht, Germany). Commercial coagulation tests (as described in Example 6) were performed with the following samples: […]
# [2] = test system: Human Blood; conditions: Stief et al. [Ref 27]; cited from earlier work
# [3] = test system: Candida albicans, CBS 5982; assay: Fungicidal activity of NCT without and with heparin (CFU counts); type: cell-based; conditions: 1% NCT, 125 IE/mL heparin, pH 7.1, 37° C., 30-120 min
# Protocol: FIG. 9 presents a plot of fungicidal activity of 1% NCT without and with 125 IE/mL heparin against Candida albicans (CBS 5982) at pH 7.1 and 37° C. Mean values±standard error of the mean of three independent experiments. P>0.05 between NCT without and NCT with heparin.
# NCT was dissolved in 0.1 M phosphate buffer containing either 125 IE/mL heparin or no heparin. The final NCT concentration was 1%. Yeast (Candida albicans, CBS 5982) grown in tryptic soy broth overnight was washed twice in saline and then suspended in the NCT and NCT/heparin solutions. Controls were performed with the yeast suspended in 0.1 M phosphate buffer without additives and in 0.1 M phosphate buffer containing 125 IE/mL heparin. After incubation times of 30, 60, 90 and 120 minutes at 37° C. and pH 7.1, aliquots of 100 μL were removed and diluted tenfold or 100-fold in 0.6% sodium thiosulfate solution to inactivate the NCT. Aliquots (50 μL) of these dilutions were spread on tryptic soy agar plates. The plates were incubated at 37° C. and colony forming units of Candida albicans were counted after 24 and 48 hours. The assays were performed three times serially and the mean count was reported (FIG. 9). […] Statistical analysis was performed by Student's paired t test and one way analysis of variance (P>0.05 between NCT without and NCT with heparin). […]
# [4] = test system: human eyes; conditions: human eyes [Ref. 13]; cited from earlier work
# [5] = test system: chronic rhinosinusitis; conditions: pilot study in chronic rhinosinusitis [Ref. 16]; cited from earlier work
# [6] = test system: citrate blood; assay: Routine coagulation tests, overall anticoagulant effect; type: biochemical, human
# Protocol: (§2) Whole blood was taken from volunteers and enriched with trisodium citrate (0.3 mL of a 0.106 molar solution per 3 mL whole blood) (S-Monovette®, Sarstedt, Nümbrecht, Germany). Routine coagulation tests were performed on the following samples:
# (§3) The following commercial coagulation tests were performed according to the prescription of the manufacturer: prothrombin time (PT) was determined using Thromborel® S test (Dade Behring GmbH, Marburg, Germany); activated partial thromboplastin time (aPTT) was determined using Pathromtin* SL test (Dade Behring GmbH, Marburg, Germany); and thrombin time (TT) was determined using BC Thrombin Reagent test (Dade Behring GmbH, Marburg, Germany).
# (§4) Whole blood was taken from a single volunteer and enriched with trisodium citrate (0.3 mL of a 0.106 molar solution per 3 mL whole blood) (S-Monovette®, Sarstedt, Nümbrecht, Germany). Portions of 1.8 mL citrate blood were mixed with 0.2 mL NCT in 0.9% saline. The following final (after dilution in blood) NCT concentrations were tested separately: 1% (55 mM); 0.5% (27.5 mM); 0.25% (13.75 mM); 0.1% (5.5 mM); 0.05% (2.75 mM); 0.025% (1.375 mM); and 0.01% (0.55 mM). A control without NCT was performed in parallel. The following commercial coagulation tests were performed according to the prescription of the manufacturer: prothrombin time (PT) was determined using Thromborel® S test (Dade Behring GmbH, Marburg, Germany), activated partial thromboplastin time (aPTT) was determined using Pathromtin* SL test (Dade Behring GmbH, Marburg, Germany); thrombin time (TT) was determined using BC Thrombin Reagent test (Dade Behring GmbH, Marburg, Germany); and fibrinogen was determined using Multifibren* U test (Dade Behring GmbH, Marburg, Germany).
# as §1
# [7] = test system: citrate blood; assay: Prothrombin time (PT), Thromborel S test; type: biochemical, human; conditions: for PT (%): Example 6, single volunteer; for Prothrombin time (PT) / Prothrombin time (PT), mean value: Example 7; for Prothrombin time (PT): individual subjects 1-11; for Prothrombin time (PT), mean value: mean of 11 subjects
# Protocol: as §2, §3, §4, §1
# [8] = test system: Swiss mice; assay: Intraperitoneal injection in Swiss mice; type: in vivo; conditions: 1% NCT i.p., a further study
# [9] = test system: citrate blood; assay: Thrombin time (TT), BC Thrombin Reagent test; type: biochemical, human; conditions: for TT / TT (sec): Example 6, single volunteer; for Thrombin time (TT) / Thrombin time (TT), mean value: Example 7; for Thrombin time (TT): individual subjects; for Thrombin time (TT), mean value: mean of 11 subjects
# Protocol: as §2, §3, §4, §1
# [10] = Example 5, 1% NCT final concentration in citrate blood
smiles,measurement,setting,value
"O=S(=O)(O)CCNCl [NCT, N-chlorotaurine]",Antithrombin III,[1]; 0.01% NCT,92% and 79% and 101% and 85% and 82% and 81% and 94% and 75% and 95% and 80% and 84%
same,"Antithrombin III, mean value",[1]; 0.01% NCT,86.2%
same,Antithrombin III,[1]; 0.025% NCT,90% and 81% and 101% and 79% (3×) and 80% and 87% and 73% and 94% and 78%
same,"Antithrombin III, mean value",[1]; 0.025% NCT,83.7%
same,concentration with anticoagulant effect (not below),[2],2 to 3 mmol/L
same,killing activity of NCT without vs with heparin,[3],no statistically significant difference in the killing activity
same,tolerability in topical and localized applications,[4],relatively safe and well-tolerated
same,tolerability,[5],good tolerability
same,effect on the anticoagulant activity of heparin,"[6]; Example 5, 1% NCT final concentration",does not counteract the anticoagulant activity of heparin
same,anticoagulant activity of NCT alone,"[6]; Example 5, 1% NCT without heparin",has anticoagulant activity
same,anticoagulant effect,[6]; NCT 0.55 mmol/L,significant anticoagulant effect
same,anticoagulant effect,[6]; NCT 1.375 mmol/L,strong effect
same,prothrombin time,[7]; [10],above the test limits
same,PT (%),[7]; 0.01% (0.55 mM) NCT final,91.4%
same,PT (%),[7]; 0.025% (1.375 mM) NCT final,70.6%
same,PT (%),[7]; 0.05% (2.75 mM) NCT final,33.4%
same,PT (%),[7]; 0.1% (5.5 mM) NCT final,<limit
same,PT (%),[7]; 0.25% (13.75 mM) NCT final,<limit
same,PT (%),[7]; 0.5% (27.5 mM) NCT final,<limit
same,PT (%),[7]; 1% (55 mM) NCT final,<limit
same,Prothrombin time (PT),[7]; 0.01% NCT,70% and 59% and 95% and 62% and 88% and 61% and 86% and 72% and 77% and 74% and 79%
same,"Prothrombin time (PT), mean value",[7]; 0.01% NCT,74.8%
same,Prothrombin time (PT),[7]; 0.025% NCT,28% and 20% and 50% and 10% and 21% and 16% (2×) and 25% and 36% and 24% and 32%
same,"Prothrombin time (PT), mean value",[7]; 0.025% NCT,25.3%
same,tolerated intraperitoneal injection,[8],tolerated up to one mL 1% NCT
same,thrombin time,[9]; [10],above the test limits
same,TT,[9]; 0.01% (0.55 mM) NCT final,19.5 s
same,TT,[9]; 0.025% (1.375 mM) NCT final,26.6 s
same,TT,[9]; 0.05% (2.75 mM) NCT final,48.8 s
same,TT,[9]; 0.1% (5.5 mM) NCT final,92.2 s
same,TT,[9]; 0.25% (13.75 mM) NCT final,101.8 s
same,TT (sec),[9]; 0.5% (27.5 mM) NCT final,>limit
same,TT (sec),[9]; 1% (55 mM) NCT final,>limit
same,Thrombin time (TT),[9]; 0.01% NCT,22 sec (5×) and 24 sec (2×) and 32 sec and 23 sec (3×)
same,"Thrombin time (TT), mean value",[9]; 0.01% NCT,23.5 s
same,Thrombin time (TT),[9]; 0.025% NCT,44 sec (2×) and 39 sec and 59 sec and 43 sec and 52 sec and 55 sec and 48 sec and 40 sec and 45 sec and 35 sec
same,"Thrombin time (TT), mean value",[9]; 0.025% NCT,45.8 s
